Results on 14 molecules are retold here after patent publication US11197891B2, “Therapies with lanthionine C-like protein 2 ligands and cells prepared therewith” (Landos Biopharma, Inc., priority 2017, dated 2021).

Experiment [1] has as its target T1, LANCL2 (Homo sapiens, UniProt Q9NS86).
T1 sequence (Q9NS86 1-450): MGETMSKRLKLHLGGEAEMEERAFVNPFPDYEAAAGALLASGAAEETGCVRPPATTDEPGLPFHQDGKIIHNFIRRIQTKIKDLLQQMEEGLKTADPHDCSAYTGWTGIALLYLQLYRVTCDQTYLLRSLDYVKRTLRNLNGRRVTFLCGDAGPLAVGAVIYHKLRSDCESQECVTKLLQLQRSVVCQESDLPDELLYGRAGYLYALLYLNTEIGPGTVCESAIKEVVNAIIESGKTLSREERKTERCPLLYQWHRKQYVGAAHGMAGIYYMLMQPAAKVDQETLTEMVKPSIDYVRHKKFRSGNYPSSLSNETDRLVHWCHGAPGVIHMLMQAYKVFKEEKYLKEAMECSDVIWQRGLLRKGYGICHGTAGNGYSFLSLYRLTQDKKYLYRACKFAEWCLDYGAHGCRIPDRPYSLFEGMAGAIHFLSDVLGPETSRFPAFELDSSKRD
Particulars: rows marked REF 18; read-out: SPR Affinity to LANCL2 (Kd); cited from earlier work.

The target in experiment [2] is T1, LANCL2. The experiment in a line: Surface plasmon resonance (SPR) binding to LANCL2. The following applies: Tables 1A and 1B; read-out: SPR Affinity to LANCL2 (Kd).
Experiment [3] relates to CD4+ T cells. The experiment in a line: Differentiation of CD4+ T cells into Tregs with metabolic modulators. Type of experiment: cell-based, mice. Particulars: BT-11 with PS-48 (5 μM), DASA-58 (10 μM) or thapsigargin (10 nM). The protocol:
(§1) Spleens from WT and Lancl2−/− mice were excised and crushed to generate a single cell suspension. CD4+ T cell fraction was enriched by negative selection via magnetic sorting with the BD IMag system. Naïve CD4+ T cells were obtained by incubation with a biotinylated CD62L antibody followed by conjugation to streptavidin coated magnetic beads. Naïve cells were incubated for 48 hours within anti-CD3 coated tissue culture plates in complete IMDM media containing all-trans retinoic acid and purified TGF-β to stimulate differentiation into Tregs. […] Metabolic modulators, PS-48 (5 μM), DASA-58 (10 μM), and thapsigargin (10 nM), were added at 0 h. […] Six hours prior to assay, cells were stimulated with PMA and ionomycin. Cells were collected from plate for downstream analysis by flow cytometry, gene expression and metabolic assay.

Experiment [4] deals with Mdr1a−/− mice. The experiment in a line: Mdr1a−/− mice with PS-48 injections (in vivo validation of immunometabolic effect). The following applies: weekly intraperitoneal injections of PS-48. On the procedure:
(§2) Colons and cells were suspended within assay specific buffer and homogenized for 10 seconds. Homogenate was centrifuged for 10 minutes at 10,000×g. For enzyme activity assays, supernatant was collected and plated. Samples were mixed with enzyme developer and substrate. Colorimetric detection of NADH production was measured using a BioTek μQuant plate reader in combination with Gen5 software. For PEP assay, supernatant was deproteinized using perchloric acid mediated purification. Samples were plated and mixed with a probe, converter, developer mix. PEP concentration was measured by absorbance quantification on plate reader.
To validate the in vitro immunometabolic findings, Mdr1a−/− mice were given weekly intraperitoneal injections of PS-48 or vehicle control. […] Similar patterns were observed within the DSS model.

Experiment [5] relates to WT Tregs. Kind of experiment: Metabolic analysis (pyruvate kinase, pyruvate dehydrogenase, PEP) in in vitro Tregs. The class given is cell-based, mice. The following applies: PS-48 (5 μM). The protocol:
as §2
as §1, with “Cells were collected from plate for downstream analysis by flow cytometry, gene expression and metabolic assay.” left out

Experiment [6] has as its system PBMCs from Crohn's disease donors. Kind of experiment: PBMCs isolated from Crohn's disease donors, 24 hour culture. The class given is cell-based, human. The following applies: presence of thapsigargin. The protocol: Fresh de-identified whole blood was obtained from commercial vendor. Blood was diluted and purified for PBMC fraction by LeukoSep tube. Remaining red blood cells were lysed by hypotonic lysis. […] For siRNA experiments, cells were first incubated with an OriGene 3-mer LANCL2 siRNA or scrambled control suspended within ViromerGreen transfection reagent for 6 hours. […] Cells were stimulated with PMA and ionomycin six hours prior to assay.
Whole blood was obtained from Crohn's disease patients, clinically categorized as mild to moderate disease.

The test system of experiment [7] is C. difficile. Kind of experiment: C. difficile culture in chopped meat media (anti-microbial properties). Particulars: 10 ug/mL.

Like-named read-outs stand apart in the source and are kept apart here.

One may read the Kd as the free concentration of one partner at which half of the binding sites on the other are occupied at equilibrium, for simple one-to-one binding. As for `CC1=CC(=O)CC(C)(C)[C@]1(O)/C=C/C(C)=C\C(=O)O` [ABA, abscisic acid], the Kd in experiment [1] was 2.3 µM. Regarding `O=C(c1cccc(-c2nc3ccccc3[nH]2)c1)N1CCN(C(=O)c2cccc(-c3nc4ccccc4[nH]3)c2)CC1` [BT-4], the Kd in experiment [2] came to 84.3 µM. For the molecule `O=C(Nc1ccc(NC(=O)c2cccc(-c3nc4ccccc4[nH]3)c2)cc1)c1cccc(-c2nc3ccccc3[nH]2)c1` [BT-6], the Kd in experiment [2] was found to be 18.2 µM. On to `O=C(c1cccc(-c2nc3ccccc3[nH]2)n1)N1CCN(C(=O)c2cccc(-c3nc4ccccc4o3)n2)CC1` [BT-15], for which, in experiment [2], the Kd turned out to be 21.4 µM.

As for `O=C1CC=C(/C=C/c2ccc(C(=O)O)o2)CC1` [BT-ABA-5a], the Kd in experiment [2] worked out at 11.7 µM. Regarding `O=C1CCC(O)(/C=C/c2cccc(C(=O)O)n2)CC1` [BT-ABA-13], in experiment [2], the Kd was determined as 4.65 µM. The same measure, in the same setting: for `O=C1CCC(O)(/C=C/c2cc(C(=O)O)ccn2)CC1` [BT-ABA-16] the value was 4.85 µM; for `O=C1CCC(O)(/C=C/c2ccc(C(=O)O)o2)CC1` [BT-ABA-25], 177 µM. Turning to `O=C1CCC(O)(/C=C/c2cccc(C(=O)O)c2)CC1` [BT-BA-6], the dissociation constant (Kd) in experiment [2] was 163 µM. With `O=C(Nc1cccc(-c2nc3c([nH]2)C=CCC3)c1)c1ccc(C(=O)Nc2cccc(-c3nc4c([nH]3)C=CCC4)c2)cc1` [Compound 61610], in experiment [1], the dissociation constant Kd is 6.2 µM. Regarding `Nc1cccc(S(=O)(=O)N2CCCN(S(=O)(=O)c3ccc4c(c3)OCCO4)CC2)c1` [DASA-58], in experiment [3], the Treg cell differentiation result is “promotes high level differentiation in both treated and untreated cells”. For the molecule `O=C(O)/C=C(/CCc1ccc(Cl)cc1)c1ccccc1` [PS-48, reference compound], in experiment [4], the “BT-11-induced changes across clinical, cellular and metabolic measures” value is “effectively blocked the BT-11-induced changes”. Further, the “BT-11 induced change in PEP and PDH activity under PS-48” value in experiment [5] is recorded as “abrogated by treatment with PS-48”. In addition, in experiment [3], the Treg cell differentiation result is “abrogates the increased differentiation of Tregs generated by BT-11”. Regarding `C/C=C(/C)C(=O)O[C@H]1C(C)=C2[C@H]([C@@H]1OC(=O)CCCCCCC)[C@@](C)(OC(C)=O)C[C@H](OC(=O)CCC)[C@@]1(O)[C@H]2OC(=O)[C@@]1(C)O` [thapsigargin, reference compound], in experiment [6], the “induction of FOXP3+ cells in PBMCs treated with BT-11” value was “prevented the increased induction of FOXP3+ cells”. The Treg cell differentiation entry in experiment [3] is reported as “diminishes the BT-11 induced increase in Treg cell differentiation”.

With `CN[C@H](CC(C)C)C(=O)N[C@H]1C(=O)N[C@@H](CC(N)=O)C(=O)N[C@H]2C(=O)N[C@H]3C(=O)N[C@H](C(=O)N[C@H](C(=O)O)c4cc(O)cc(O)c4-c4cc3ccc4O)[C@H](O)c3ccc(c(Cl)c3)Oc3cc2cc(c3O[C@@H]2O[C@H](CO)[C@@H](O)[C@H](O)[C@H]2O[C@H]2C[C@](C)(N)[C@H](O)[C@H](C)O2)Oc2ccc(cc2Cl)[C@H]1O` [vancomycin, reference compound], the “reduction of colony forming units” value in experiment [7] is on record as 95%. Besides, the colony forming units entry in experiment [7] (from 4 million) is reported as “under 200,000”.
